These results are taken from ChEMBL document CHEMBL1201862, “PubChem BioAssay data set” (2004).

The source made the active and inactive calls. A value given as a limit tells only on which side of the number the result lay.

Assay [1] concerns the target T1, High affinity choline transporter 1 (Homo sapiens, UniProt Q9GZV3).
T1 sequence (Q9GZV3 whole entry): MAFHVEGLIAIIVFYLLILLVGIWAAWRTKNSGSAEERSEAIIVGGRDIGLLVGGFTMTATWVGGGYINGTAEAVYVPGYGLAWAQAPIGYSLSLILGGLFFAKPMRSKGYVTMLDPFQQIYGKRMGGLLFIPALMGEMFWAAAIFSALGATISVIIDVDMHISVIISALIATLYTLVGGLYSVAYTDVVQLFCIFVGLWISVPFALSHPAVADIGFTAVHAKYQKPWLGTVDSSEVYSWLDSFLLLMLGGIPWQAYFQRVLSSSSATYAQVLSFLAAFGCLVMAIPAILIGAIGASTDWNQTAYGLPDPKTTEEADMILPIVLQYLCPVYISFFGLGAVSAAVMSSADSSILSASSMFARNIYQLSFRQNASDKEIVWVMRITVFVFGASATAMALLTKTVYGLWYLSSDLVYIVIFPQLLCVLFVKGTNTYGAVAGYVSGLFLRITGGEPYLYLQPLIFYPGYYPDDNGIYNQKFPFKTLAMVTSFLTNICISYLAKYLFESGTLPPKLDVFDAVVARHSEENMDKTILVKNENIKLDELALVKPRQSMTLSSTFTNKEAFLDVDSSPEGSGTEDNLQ
The assay is described as follows: human choline transporter blockers, potency – cell-based, 5-point CRC, membrane potential dye, dose response (AID 504840). Format: functional.

For assay [2], the target named is T1, High affinity choline transporter 1. The assay is described as follows: human choline transporter radiolabel uptake blockers – cell-based, 3H-choline uptake, CHT LV-AA trafficking mutant, CRC, dose response (AID 602208). Format: functional.
Assay [3] has the same target. In words: human choline transporter blockers, potency – cell-based, 10-point CRC, membrane potential dye, dose response (AID 588401).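 Note: membrane potential dye fluorescence of choline-evoked depolarization via CHT.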 The format is functional.
Assay [4] in a line: inhibition of ARNT PAS-B/TACC3 complex formation – biochemical, AlphaScreen, cherry-picked samples, confirmation (AID 651703).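 Note: His-tagged ARNT PAS-B domain paired with GST-TACC3 E629A dimer coactivator fragment; potency of inhibitors that break up the complex and lower AlphaScreen signal.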 The format is functional, Homo sapiens.
Assay [5] addresses Dual specificity protein phosphatase 3 (Homo sapiens, UniProt P51452). In words: VHR phosphatase inhibition, dose response, selectivity assay for STEP inhibitor project, biochemical (AID 602374). Conditions: read-out: IC50_Mean. Format: functional.
In assay [6] the target is Tyrosine-protein phosphatase non-receptor type 11 (Homo sapiens, UniProt Q06124). In words: PTPN11 enzyme inhibitors – biochemical, selectivity assay for STEP inhibitor project, dose response (AID 602367). Format: functional. Conditions: read-out: IC50_Mean.
The target in assay [7] is Tyrosine-protein phosphatase non-receptor type 5 (Homo sapiens, UniProt P54829). The assay is described as follows: PTPN5 enzyme inhibition – biochemical, fluorescence intensity, uHTS hits, confirmation (AID 602372). The settings on record: read-out: IC50_Mean. Format: functional.
Assay [8] deals with Glucose-6-phosphate 1-dehydrogenase (Homo sapiens, UniProt P11413). The assay is described as follows: inhibition of Homo sapiens G6PD, dose series – biochemical, fluorescence, selectivity assay for P. falciparum G6PD inhibitor project, dose response (AID 504792). The format is functional.
Assay [9] is described as follows: Vero E6 cell cytotoxicity, dose response, cytotoxicity control for non-replicating M. tuberculosis project, secondary assay (AID 492998). The settings on record: Vero C1008. The format is functional, VeroE6.
A short description of assay [10]: Trypanosoma cruzi growth suppression in host cells – NIH3T3 host cells, beta-gal luminescence, confirmation (AID 2044).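 Note: intracellular parasites grown in NIH/3T3 mouse fibroblasts as host cells; luminescent beta-galactosidase reporter signal from transgenic T. cruzi replicating inside host cells; inhibitors lower the luminescence signal.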 Format: functional, cell-based.
The target in assay [11] is Mitochondrial peptide methionine sulfoxide reductase (Bos taurus, UniProt P54149). The assay is described as follows: Absorbance-based biochemical high throughput dose response assay for activators of Methionine sulfoxide reductase A (MsrA). The format is functional.
A short description of assay [12]: NIH3T3 cell viability loss – ATP luminescence, mouse fibroblasts, counter-screen, dose response (AID 2010).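 Note: cells exposed to compound for about 90 hours before reading.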 Format: functional, cell-based.
The nature of the next assay: cells. The format is functional.
The nature of assay [13]: THP-1 cell cytotoxicity, dose response, cytotoxicity control for non-replicating M. tuberculosis project (AID 489025). The format is functional.
The target of assay [14] is T2, Microphthalmia-associated transcription factor (Homo sapiens, UniProt O75030).
T2 sequence (O75030 whole entry): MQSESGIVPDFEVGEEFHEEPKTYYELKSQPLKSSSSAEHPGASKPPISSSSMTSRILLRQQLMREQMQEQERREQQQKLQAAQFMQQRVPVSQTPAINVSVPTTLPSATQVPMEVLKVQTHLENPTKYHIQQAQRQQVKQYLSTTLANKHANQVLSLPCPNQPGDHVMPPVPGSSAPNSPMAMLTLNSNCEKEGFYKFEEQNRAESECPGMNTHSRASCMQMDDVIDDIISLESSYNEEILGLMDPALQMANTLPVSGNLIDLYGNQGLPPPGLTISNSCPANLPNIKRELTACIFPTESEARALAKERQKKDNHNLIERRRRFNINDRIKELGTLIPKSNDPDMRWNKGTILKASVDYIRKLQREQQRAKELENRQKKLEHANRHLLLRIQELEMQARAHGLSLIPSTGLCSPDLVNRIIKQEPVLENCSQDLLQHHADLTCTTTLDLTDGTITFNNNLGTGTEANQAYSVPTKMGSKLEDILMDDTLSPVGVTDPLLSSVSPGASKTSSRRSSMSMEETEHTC
In words: reducers of TRPM1 reporter luminescence, concentration series – cell-based, SK-MEL-5, cherry-picked, set 3, MITF inhibitor project, dose response (AID 493073).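 Note: SK-MEL-5 melanoma cells with luciferase driven by the MITF target TRPM1 promoter.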 The format is functional.

Tyrosine-protein phosphatase non-receptor type 5, sequence (P54829 whole entry): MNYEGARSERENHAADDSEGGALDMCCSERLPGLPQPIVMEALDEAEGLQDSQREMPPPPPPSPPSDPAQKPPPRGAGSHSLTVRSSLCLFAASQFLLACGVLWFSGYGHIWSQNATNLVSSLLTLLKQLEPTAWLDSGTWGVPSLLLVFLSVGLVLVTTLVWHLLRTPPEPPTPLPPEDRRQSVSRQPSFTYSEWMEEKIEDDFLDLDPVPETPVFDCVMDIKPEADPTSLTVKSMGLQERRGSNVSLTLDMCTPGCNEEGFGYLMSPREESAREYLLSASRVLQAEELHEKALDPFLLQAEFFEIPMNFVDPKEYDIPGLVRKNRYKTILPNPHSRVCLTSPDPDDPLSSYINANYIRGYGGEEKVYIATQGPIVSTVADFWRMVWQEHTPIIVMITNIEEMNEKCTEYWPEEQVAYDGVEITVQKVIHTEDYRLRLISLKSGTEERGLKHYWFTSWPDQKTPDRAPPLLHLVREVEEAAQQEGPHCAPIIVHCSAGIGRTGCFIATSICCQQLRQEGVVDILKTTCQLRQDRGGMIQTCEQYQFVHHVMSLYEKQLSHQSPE
Glucose-6-phosphate 1-dehydrogenase, sequence (P11413 whole entry): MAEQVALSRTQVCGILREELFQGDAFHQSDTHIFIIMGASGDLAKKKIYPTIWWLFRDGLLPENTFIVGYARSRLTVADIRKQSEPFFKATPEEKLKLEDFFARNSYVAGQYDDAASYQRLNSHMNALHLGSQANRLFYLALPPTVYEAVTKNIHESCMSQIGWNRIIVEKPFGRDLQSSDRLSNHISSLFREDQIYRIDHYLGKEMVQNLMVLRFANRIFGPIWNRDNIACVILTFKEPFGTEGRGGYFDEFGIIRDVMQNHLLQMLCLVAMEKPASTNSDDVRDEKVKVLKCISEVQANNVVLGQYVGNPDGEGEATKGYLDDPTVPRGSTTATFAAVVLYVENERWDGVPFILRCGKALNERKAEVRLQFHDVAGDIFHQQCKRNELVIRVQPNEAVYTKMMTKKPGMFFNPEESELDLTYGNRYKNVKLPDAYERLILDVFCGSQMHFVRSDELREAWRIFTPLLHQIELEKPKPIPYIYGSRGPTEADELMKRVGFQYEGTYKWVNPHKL
Dual specificity protein phosphatase 3, sequence (P51452 whole entry): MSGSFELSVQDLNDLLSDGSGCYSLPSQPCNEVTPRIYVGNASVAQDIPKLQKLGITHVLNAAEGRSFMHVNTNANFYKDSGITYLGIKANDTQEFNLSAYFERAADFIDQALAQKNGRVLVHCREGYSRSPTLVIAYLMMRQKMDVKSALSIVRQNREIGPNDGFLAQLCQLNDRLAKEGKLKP
Tyrosine-protein phosphatase non-receptor type 11, sequence (Q06124 whole entry): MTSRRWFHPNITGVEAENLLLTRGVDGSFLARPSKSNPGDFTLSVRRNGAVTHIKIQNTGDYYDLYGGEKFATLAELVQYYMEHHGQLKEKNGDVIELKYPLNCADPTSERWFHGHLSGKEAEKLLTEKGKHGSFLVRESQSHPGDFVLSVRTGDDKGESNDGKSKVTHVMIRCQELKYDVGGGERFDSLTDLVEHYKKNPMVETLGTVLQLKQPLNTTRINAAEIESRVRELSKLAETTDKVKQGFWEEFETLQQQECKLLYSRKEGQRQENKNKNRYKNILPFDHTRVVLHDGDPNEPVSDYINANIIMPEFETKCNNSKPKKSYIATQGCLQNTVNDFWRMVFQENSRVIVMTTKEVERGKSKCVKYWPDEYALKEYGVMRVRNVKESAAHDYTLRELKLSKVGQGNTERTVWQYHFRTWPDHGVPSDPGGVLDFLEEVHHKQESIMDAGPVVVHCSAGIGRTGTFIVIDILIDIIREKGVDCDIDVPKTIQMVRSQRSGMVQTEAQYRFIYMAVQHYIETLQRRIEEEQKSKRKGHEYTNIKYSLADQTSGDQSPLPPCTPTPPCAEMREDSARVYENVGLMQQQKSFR
Mitochondrial peptide methionine sulfoxide reductase, sequence (P54149 whole entry): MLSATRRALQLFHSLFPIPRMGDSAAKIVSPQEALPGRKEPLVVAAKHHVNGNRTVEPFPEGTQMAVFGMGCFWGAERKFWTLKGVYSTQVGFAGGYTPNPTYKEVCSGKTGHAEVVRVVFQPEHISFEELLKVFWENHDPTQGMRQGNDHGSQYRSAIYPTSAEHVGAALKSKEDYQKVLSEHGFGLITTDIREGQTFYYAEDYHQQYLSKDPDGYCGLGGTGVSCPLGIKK

`COc1ccc(C(=O)NC2CCc3ccccc32)cc1OC1CCN(C(C)C)CC1` (stereo not given): the IC50 in assay [1] was 5.55 µM (active); in assay [2], 2.12 µM (active); in assay [3], 3.36 µM (active).

Regarding `CCOc1ccc2c(c1)C(N(CCN1CCOCC1)C(=O)Nc1ccccc1)CC(C)(C)O2` (stereo not given), in [4], the AC50 was 84 µM (active).

With `CCN1CCN(C(=S)c2ccc(Cl)c(Cl)c2)CC1`, the IC50 was 0.81 µM (active) in assay [5], 0.843 µM (active) in [6], 18.2 µM (active) in [7] and > 80 µM (inactive) in assay [8].

For the molecule `O=C(N/N=C/c1ccc([N+](=O)[O-])s1)c1cccc(Br)c1`, the figures for the CC50 in assay [9] and in assay [13] were 6.21 µM (active) and 7.59 µM (active), respectively. Further, the EC50 was 0.754 µM (active) in [10], > 104 µM (inactive) in [11] and 5.39 µM (active) in [12]. Further, the IC50 in “cells” was 4.37 µM (active). Also, in [14], the AC50 was 4.83 µM (active).
